According to US10428055B2, “Substituted piperidines having GPR119 agonistic activity” (DONG-A ST CO., LTD., priority 2014, dated 2019):

Molecular target: T1, Human GPR119 (Homo sapiens, UniProt Q8TDV5)
T1 construct: host or cells: HEK293 (ATCC)
T1 sequence (Q8TDV5 1-335): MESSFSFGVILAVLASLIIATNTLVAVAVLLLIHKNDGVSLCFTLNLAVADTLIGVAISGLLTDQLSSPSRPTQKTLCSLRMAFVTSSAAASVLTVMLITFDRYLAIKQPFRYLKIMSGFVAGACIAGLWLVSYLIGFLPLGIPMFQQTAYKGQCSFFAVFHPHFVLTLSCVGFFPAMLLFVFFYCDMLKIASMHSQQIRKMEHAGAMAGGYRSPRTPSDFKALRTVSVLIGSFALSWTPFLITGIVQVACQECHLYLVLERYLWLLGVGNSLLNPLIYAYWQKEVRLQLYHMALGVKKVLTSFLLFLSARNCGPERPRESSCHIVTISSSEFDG
Assay: Human GPR119 activation assay (cAMP, HTRF)
Type: cell-based
Conditions: 1 h, HEK293 cells transiently expressing human GPR119, relative to maximum effect of OEA, read-out: hGPR119 activation ability (cAMP assay) Relative Response % vs OEA; for Emax at 0.001 µM: 1 nM; for Emax at 0.01 µM: 10 nM
From the text: <Experimental Example 1>Human GPR119 activation assay
Human GPR119 was temporarily expressed on cells, thereby quantifying the amount of cyclic adenosine 3′,5′-monophosphate (cAMP) increased upon activating GPR119 by the compound of the present invention, using the product from Cysbio, by a method of HTRF (homogeneous time resolved fluorescence), and such quantification was used to refer to efficacy on GPR119 activation.
Human GPR119 expression vector (Origene) was overexpressed in […] renal epithelial cells (HEK293) (ATCC), and the cells were stabilized for 48 hours. With a solution of 11.1 mM glucose, 0.1% bovine serum albumin, and 0.5 mM IBMX (3-isobutyl-1-methylxanthine) which is a phosphodiesterase inhibitor being added to a KRBH (Krebs-Ringer Bicarbonate HEPES; Hou ZQ. et al., Mol Cell Endocrinol, 2008(291):71-78) buffer, the cells were pre-treated for 10 minutes. Thereafter, the cells were treated with the same solution containing a drug for 60 minutes, then the supernatant was removed, and the increase in cAMP in cells was quantified using a Cysbio cAMP HiRange kit.
As to the maximum efficacy of compounds tested, multiple concentration assessment for the compounds of the present invention was carried out, thereby assessing the relative activation level (%) to the maximum effect of oleoylethanolamide (OEA), an endogenous ligand of GPR119.

Row | Compound | Emax at 0.001 µM [%] | Emax at 0.01 µM [%]
1 | CCc1cnc(N2CCC(CCCOc3cc(F)c(C4=NCCO4)c(F)c3)CC2)nc1 [Example 1, 2-(4-(3-(1-(5-ethylpyrimidin-2-yl)piperidin-4-yl)propoxy)-2,6-difluorophenyl)-4,5-dihydrooxazole] | 50.7 | 116
2 | CCc1cnc(N2CCC(CCCOc3cc(F)c(C4=N[C@H](C)CO4)c(F)c3)CC2)nc1 [Example 2, (R)-2-(4-(3-(1-(5-ethylpyrimidin-2-yl)piperidin-4-yl)propoxy)-2,6-difluorophenyl)-4-methyl-4,5-dihydrooxazole] | 34.8 | 113
3 | CCc1cnc(N2CCC(CCCOc3cc(F)c(C4=N[C@@H](C)CO4)c(F)c3)CC2)nc1 [Example 3, (S)-2-(4-(3-(1-(5-ethylpyrimidin-2-yl)piperidin-4-yl)propoxy)-2,6-difluorophenyl)-4-methyl-4,5-dihydrooxazole] | 192 | 47.8
4 | CCc1cnc(N2CCC(CCCOc3cc(F)c(C4=NCC(C)(C)O4)c(F)c3)CC2)nc1 [Example 6, 2-(4-(3-(1-(5-ethylpyrimidin-2-yl)piperidin-4-yl)propoxy)-2,6-difluorophenyl)-5,5-dimethyl-4,5-dihydrooxazole] | 33.5 | 102
5 | CCc1cnc(N2CCC(CCCOc3cc(F)c(C4=NC[C@@H](CO)O4)c(F)c3)CC2)nc1 [Example 8, (S)-(2-(4-(3-(1-(5-ethylpyrimidin-2-yl)piperidin-4-yl)propoxy)-2,6-difluorophenyl)-4,5-dihydrooxazol-5-yl)methanol] | 144 | 393
6 | CC(C)Cc1nc(-c2cnc(N3CCC(CCCOc4cc(F)c(C5=NC[C@@H](C)O5)c(F)c4)CC3)nc2)no1 [Example 9, (R)-3-(2-(4-(3-(3,5-difluoro-4-(5-methyl-4,5-dihydrooxazol-2-yl)phenoxy)propyl)piperidin-1-yl)pyrimidin-5-yl)-5-isobuty-1,2,4-oxadiazole] | 97.1 | 241
7 | CC(C)c1noc(N2CCC(CCCOc3cc(F)c(C4=N[C@H](C)CO4)c(F)c3)CC2)n1 [Example 10, (R)-5-(4-(3-(3,5-difluoro-4-(4-methyl-4,5-dihydrooxazol-2-yl)phenoxy)propyl)piperidin-1-yl)-3-isopropyl-1,2,4-oxadiazole] | 192 | 266
8 | CCCc1nc(-c2c(F)cc(OCCCC3CCN(c4ncc(CC)cn4)CC3)cc2F)no1 [Example 14, 3-(4-(3-(1-(5-ethylpyrimidin-2-yl)piperidin-4-yl)propoxy)-2,6-difluorophenyl)-5-propyl-1,2,4-oxadiazole] | 96 | 131
9 | CCc1cnc(N2CCC(CCCOc3cc(F)c(-c4noc(C(C)(C)C)n4)c(F)c3)CC2)nc1 [Example 16, 5-(tert-butyl)-3-(4-(3-(1-(5-ethylpyrimidin-2-yl)piperidin-4-yl)propoxy)-2,6-difluorophenyl)-1,2,4-oxadiazole] | 108 | 321
10 | CCc1cnc(N2CCC(CCCOc3cc(F)c(-c4noc(CO)n4)c(F)c3)CC2)nc1 [Example 17, (3-(4-(3-(1-(5-ethylpyrimidin-2-yl)piperidin-4-yl)propoxy)-2,6-difluorophenyl)-1,2,4-oxadiazol-5-yl)methanol] | 116 | 216
11 | CCc1cnc(N2CCC(CCCOc3cc(F)c(-c4noc(CCO)n4)c(F)c3)CC2)nc1 [Example 18, 2-(3-(4-(3-(1-(5-ethylpyrimidin-2-yl)piperidin-4-yl)propoxy)-2,6-difluorophenyl)-1,2,4-oxadiazol-5-yl)ethan-1-ol] | 303 | 436
12 | CCc1cnc(N2CCC(CCCOc3cc(F)c(-c4noc(C[C@@H](C)O)n4)c(F)c3)CC2)nc1 [Example 20, (R)-1-(3-(4-(3-(1-(5-ethylpyrimidin-2-yl)piperidin-4-yl)propoxy)-2,6-difluorophenyl)-1,2,4-oxadiazol-5-yl) propan-2-ol] | 235 | 413
13 | CCc1cnc(N2CCC(CCCOc3cc(F)c(-c4noc(C[C@H](C)O)n4)c(F)c3)CC2)nc1 [Example 21, (S)-1-(3-(4-(3-(1-(5-ethylpyrimidin-2-yl)piperidin-4-yl)propoxyl)-2,6-difluorophenyl)-1,2,4-oxadiazol-5-yl) propan-2-ol] | 160 | 336
14 | COc1cnc(N2CCC(CCCOc3cc(F)c(-c4noc(C(C)C)n4)c(F)c3)CC2)nc1 [Example 26, 3-(2,6-difluoro-4-(3-(1-(5-methoxypyrimidin-2-yl)piperidin-4-yl)propoxy)phenyl)-5-isopropyl-1,2,4-oxadiazole] | 67.8 | 165
15 | CC(C)Oc1cnc(N2CCC(CCCOc3cc(F)c(-c4noc(C(C)C)n4)c(F)c3)CC2)nc1 [Example 27, 3-(2,6-difluoro-4-(3-(1-(5-isopropoxypyrimidin-2-yl)piperidin-4-yl)propoxy)phenyl)-5-isopropyl-1,2,4-oxadiazole] | 9.4 | 123
16 | CC(C)c1nc(-c2c(F)cc(OCCCC3CCN(c4ncc(Br)cn4)CC3)cc2F)no1 [Example 29, 3-(4-(3-(1-(5-bromopyrimidin-2-yl)piperidin-4-yl)propoxy)-2,6-difluorophenyl)-5-isopropyl-1,2,4-oxadiazole] | 75.3 | 173
17 | Cc1nc(-c2c(F)cc(OCCCC3CCN(c4ncc(-c5noc(CC(C)C)n5)cn4)CC3)cc2F)no1 [Example 30, 3-(2,6-difluoro-4-(3-(1-(5-(5-isobutyl-1,2,4-oxadiazol-3-yl)pyrimidin-2-yl)piperidin-4-yl)propoxy)phenyl)-5-methyl-1,2,4-oxadiazole] | 103 | 172
18 | CCc1nc(-c2c(F)cc(OCCCC3CCN(c4ncc(-c5noc(CC(C)C)n5)cn4)CC3)cc2F)no1 [Example 31, 3-(2,6-difluoro-4-(3-(1-(5-(5-isobutyl-1,2,4-oxadiazol-3-yl)pyrimidin-2-yl)piperidin-4-yl)propoxy)phenyl)-5-ethyl-1,2,4-oxadiazole] | 59.4 | 116
19 | CC(C)Cc1nc(-c2cnc(N3CCC(CCCOc4cc(F)c(-c5noc(C(C)C)n5)c(F)c4)CC3)nc2)no1 [Example 32, 3-(2,6-difluoro-4-(3-(1-(5-(5-isobutyl-1,2,4-oxadiazol-3-yl)pyrimidin-2-yl)piperidin-4-yl)propoxy)phenyl)-5-isopropyl-1,2,4-oxadiazole] | 201 | 288
20 | CCC(C)c1nc(-c2c(F)cc(OCCCC3CCN(c4ncc(-c5noc(CC(C)C)n5)cn4)CC3)cc2F)no1 (stereo not drawn) [Example 33, 5-(sec-butyl)-3-(2,6-difluoro-4-(3-(1-(5-(5-isobutyl-1,2,4-oxadiazol-3-yl)pyrimidin-2-yl)piperidin-4-yl)propoxy)phenyl)-1,2,4-oxadiazole] | 66.8 | 108
21 | COCc1nc(-c2c(F)cc(OCCCC3CCN(c4ncc(-c5noc(CC(C)C)n5)cn4)CC3)cc2F)no1 [Example 34, 3-(2,6-difluoro-4-(3-(1-(5-(5-isobutyl-1,2,4-oxadiazol-3-yl)pyrimidin-2-yl)piperidin-4-yl)propoxy)phenyl)-5-(methoxymethyl)-1,2,4-oxadiazole] | 82.1 | 134
22 | CC[C@H](O)c1nc(-c2c(F)cc(OCCCC3CCN(c4ncc(-c5noc(CC(C)C)n5)cn4)CC3)cc2F)no1 [Example 35, (S)-1-(3-(2,6-difluoro-4-(3-(1-(5-(5-isobutyl-1,2,4-oxadiazol-3-yl)pyrimidin-2-yl)piperidin-4-yl)propoxy)phenyl)-1,2,4-oxadiazol-5-yl) propan-1-ol] | 52.5 | 118
23 | CC(C)Cc1nc(-c2cnc(N3CCC(CCCOc4cc(F)c(-c5noc(C(C)(C)CO)n5)c(F)c4)CC3)nc2)no1 [Example 36, 2-(3-(2,6-difluoro-4-(3-(1-(5-(5-isobutyl-1,2,4-oxadiazol-3-yl)pyrimidin-2-yl)piperidin-4-yl)propoxy)phenyl)-1,2,4-oxadiazol-5-yl)-2-methylpropan-1-ol] | 66.4 | 174
24 | CC(C)c1nc(-c2c(F)cc(OCCCC3CCN(c4cnc(Cl)cn4)CC3)cc2F)no1 [Example 37, 3-(4-(3-(1-(5-chloropyrazin-2-yl)piperidin-4-yl)propoxy)-2,6-difluorophenyl)-5-isopropyl-1,2,4-oxadiazole] | 52.1 | 307
